# Data: patent US8802678B2, “Carbonylated (aza) cyclohexanes as dopamine D3 receptor ligands” (Bioprojet, priority 2006, dated 2014)
row,SMILES,melting point [°C]
1,"Cc1ccc(N2CCN(CC[C@H]3CC[C@H](NC(=O)C4=CCCC4)CC3)CC2)cc1C [Example 507, Cyclopent-1-enecarboxylic acid (4-{2-[4-(3,4-dimethylphenyl)-piperazin-1-yl]ethyl}cyclohexyl) amide]",201
2,"Cc1ccc(N2CCN(CC[C@H]3CC[C@H](NC(=O)CC(F)(F)F)CC3)CC2)cc1C [Example 509, N-(4-{2-[4-(3,4-Dimethylphenyl)piperazin-1-yl]ethyl}cyclohexyl)-3,3,3-trifluoropropanamide]",199
3,"N#Cc1cccc(N2CCN(CC[C@H]3CC[C@H](NC(=O)C4=CCCC4)CC3)CC2)c1 [Example 512, Cyclopent-1-enecarboxylic acid (4-{2-[4-(3-cyanophenyl)-piperazin-1-yl]ethyl}cyclohexyl) amide]",191
4,"CCOCC(=O)N[C@H]1CC[C@H](CCN2CCN(c3ccc(Cl)cc3)CC2)CC1 [Example 515, N-(4-{2-[4-(4-Chloro-phenyl)piperazin-1-yl]ethyl}-cyclohexyl)-2-ethoxyacetamide]",154
5,"O=C(N[C@H]1CC[C@H](CCN2CCN(c3ccc(Cl)cc3F)CC2)CC1)C1=CCCC1 [Example 517, Cyclopent-1-enecarboxylic acid (4-{2-[4-(4-chloro-2-fluorophenyl)piperazin-1-yl]ethyl}cyclohexyl) amide]",216
6,"N#CCC(=O)N[C@H]1CC[C@H](CCN2CCN(c3ccc(Cl)c(Cl)c3F)CC2)CC1 [Example 519, 2-Cyano-N-(4-{2-[4-(3,4-dichloro-2-fluorophenyl)piperazin-1-yl]ethyl}cyclohexyl)acetamide]",237
7,"N#CCCCC(=O)N[C@H]1CC[C@H](CCN2CCN(c3ccc(Cl)c(Cl)c3F)CC2)CC1 [Example 520, 4-Cyano-N-(4-{2-[4-(3,4-dichloro-2-fluorophenyl)piperazin-1-yl]ethyl}cyclohexyl)butanamide]",199
8,"CCOCC(=O)N[C@H]1CC[C@H](CCN2CCN(c3cc(Cl)ccc3Cl)CC2)CC1 [Example 521, N-(4-{2-[4-(2,5-Dichlorophenyl)-piperazin-1-yl]ethyl}cyclohexyl)-2-ethoxyacetamide]",128
9,"O=C(N[C@H]1CC[C@H](CCN2CCN(c3cc(F)c(F)cc3F)CC2)CC1)C1=CCCC1 [Example 523, Cyclopent-1-enecarboxylic acid (4-{2-[4-(2,4,5-trifluorophenyl)piperazin-1-yl]ethyl}cyclohexyl) amide]",199
10,"N#Cc1cccc(N2CCN(CC[C@H]3CC[C@H](NC(=O)C4=COCC4)CC3)CC2)c1 [Example 524, 4,5-Dihydrofuran-3-carboxylic acid (4-{2-[4-(3-cyanophenyl)piperazin-1-yl]ethyl}cyclohexyl) amide]",165
11,"N#CCC(=O)N[C@H]1CC[C@H](CCN2CCN(c3cccc(-c4ncco4)c3)CC2)CC1 [Example 530, 2-Cyano-N-(4-{2-[4-(3-oxazol-2-ylphenyl)piperazin-1-yl]ethyl}cyclohexyl)acetamide]",185
12,"O=C(N[C@H]1CC[C@H](CCN2CCN(c3cccc(-c4ncco4)c3)CC2)CC1)C1=COCC1 [Example 532, 4,5-Dihydrofuran-3-carboxylic acid(4-{2-[4-(3-oxazol-2-ylphenyl)piperazin-1-yl]ethyl}cyclohexyl) amide]",202

# Next, values leading:
row,melting point [°C],SMILES
1,161,"COCCCC(=O)N[C@H]1CC[C@H](CCN2CCN(c3ccc(C)c(C)c3)CC2)CC1 [Example 506, N-(4-{2-[4-(3,4-Dimethylphenyl)piperazin-1-yl]ethyl}cyclohexyl)-4-methoxybutanamide]"
2,122,"CCOCC(=O)N[C@H]1CC[C@H](CCN2CCN(c3ccc(C)c(C)c3)CC2)CC1 [Example 508, N-(4-{2-[4-(3,4-Dimethylphenyl)piperazin-1-yl]ethyl}cyclohexyl)-2-ethoxyacetamide]"
3,170,"N#CCCCC(=O)N[C@H]1CC[C@H](CCN2CCN(c3ccc4c(c3)CCCC4)CC2)CC1 [Example 510, 4-Cyano-N-(4-{2-[4-(5,6,7,8-tetrahydronaphthalen-2-yl)piperazin-1-yl]ethyl}cyclohexyl)butanamide]"
4,180,"N#Cc1cccc(N2CCN(CC[C@H]3CC[C@H](NC(=O)CC(F)(F)F)CC3)CC2)c1 [Example 511, N-(4-{2-[4-(3-Cyanophenyl)piperazin-1-yl]ethyl}cyclohexyl)-3,3,3-trifluoropropanamide]"
5,168,"COCCCC(=O)N[C@H]1CC[C@H](CCN2CCN(c3cccc(C#N)c3)CC2)CC1 [Example 513, N-(4-{2-[4-(3-Cyanophenyl)-piperazin-1-yl]ethyl}cyclohexyl)-4-methoxybutanamide]"
6,128,"CCOCC(=O)N[C@H]1CC[C@H](CCN2CCN(c3cc(C(F)(F)F)ccc3F)CC2)CC1 [Example 514, 2-Ethoxy-N-(4-{2-[4-(2-fluoro-5-trifluoromethylphenyl)piperazin-1-yl]ethyl}cyclohexyl)acetamide]"
7,102,"CCCOCC(=O)N[C@H]1CC[C@H](CCN2CCN(c3cccc(C(F)(F)F)c3F)CC2)CC1 [Example 516, N-(4-{2-[4-(2-Fluoro-3-trifluoromethylphenyl)piperazin-1-yl]ethyl}cyclohexyl)-2-propoxyacetamide]"
8,202,"Cc1ccc(N2CCN(CC[C@H]3CC[C@H](NC(=O)C4=CCCC4)CC3)CC2)c(F)c1 [Example 518, Cyclopent-1-enecarboxylic acid (4-{2-[4-(2-fluoro-4-methylphenyl)piperazin-1-yl]ethyl}cyclohexyl) amide]"
9,175,"N#CCCCC(=O)N[C@H]1CC[C@H](CCN2CCN(c3cccc(F)c3C#N)CC2)CC1 [Example 522, 4-Cyano-N-(4-{2-[4-(2-cyano-3-fluorophenyl)piperazin-1-yl]ethyl}cyclohexyl)butanamide]"
10,198,"O=C(N[C@H]1CC[C@H](CCN2CCN(c3cc(Cl)ccc3F)CC2)CC1)C1=CCCC1 [Example 525, Cyclopent-1-enecarboxylic acid (4-{2-[4-(5-chloro-2-fluorophenyl)piperazin-1-yl]ethyl}cyclohexyl) amide]"
11,192,"N#CCCCC(=O)N[C@H]1CC[C@H](CCN2CCN(c3cccc(-c4ncco4)c3)CC2)CC1 [Example 526, 4-Cyano-N-(4-{2-[4-(3-oxazol-2-ylphenyl)piperazin-1-yl]ethyl}cyclohexyl)butanamide]"
12,192,"O=C(N[C@H]1CC[C@H](CCN2CCN(c3ccc(F)cc3F)CC2)CC1)C1=COCC1 [Example 527, 4,5-Dihydrofuran-3-carboxylic acid (4-{2-[4-(2,4-difluorophenyl)piperazin-1-yl]ethyl}cyclohexyl) amide]"
13,172,"N#CCC(=O)N[C@H]1CC[C@H](CCN2CCN(c3cc(Cl)cc(C(F)(F)F)c3)CC2)CC1 [Example 528, N-(4-{2-[4-(3-Chloro-5-trifluoromethylphenyl)piperazin-1-yl]ethyl}cyclohexyl)-2-cyanoacetamide]"
14,152,"N#CCCCC(=O)N[C@H]1CC[C@H](CCN2CCN(c3cc(Cl)cc(C(F)(F)F)c3)CC2)CC1 [Example 529, N-(4-{2-[4-(3-Chloro-5-trifluoromethylphenyl)piperazin-1-yl]ethyl}cyclohexyl)-4-cyanobutanamide]"
